Among the data in US11040028B2, “Penicinotam derivative, preparation method and use thereof” (OCEAN UNIVERSITY OF CHINA, priority 2017, dated 2021) are IC50 values, retold here.

Common to all, as to format: cell-based
Experiment [1] deals with human hepatic stellate cells LX-2. Kind of experiment: Anti-fibrosis activity test: inhibition of proliferation of human hepatic stellate cells LX-2 (CCK-8). Conditions: Homo sapiens, 48 h, human hepatic stellate cells LX-2, CCK-8, 48 hours. How it is done:
(§1) BHK-21 cells in exponential growth phase were selected. After the fusion growth reached 85-95%, normal passage method was utilized to digest and collect the cells, followed by cell counting and adjusting the cell density to 2×10^4 cells/mL. The cells were seeded into 96-well plates, 100 μL/well, and were incubated under the condition of 5% CO2 at 37° C.
(§2) The supernatant was removed after the cells had adhered to the wall for 24 hours. The culture solution containing the prepared compounds at different concentrations were added to the wells, 100 μL/well, each concentration in triplicate. The cells were subcultured for 48 hours after administration. Commercially available pirfenidone was employed as the positive control.
(§3) 10 μL of CCK-8 solution ( 1/10 of the volume of the culture solution) was added to each well 48 hours after the administration, and incubated for 2 hours. The absorbance (A) of each well was determined by a microplate reader at 450 nm wavelength. The inhibition rate against cell proliferation for each compound was calculated based on A, wherein inhibition rate against cell proliferation (inhibition ratio, IR)=(1−value of experimental group (Ai)/value of blank control group (Ao))×100% and the IC50 value of each compound was calculated by the data processing software.
(§4) Using the same protocol for the cell experiments, the inhibitory activity of the test compounds against the proliferation of human lung fibroblasts HFL1, human hepatic stellate cells LX-2, human fibrosarcoma cells HT-1080, human dermal fibroblasts CCC-ESF-1, human embryonic lung fibroblast IMR-90, cardiac fibroblast RAT-iCell-C002 was assayed.

For experiment [2], the system named is human fibrosarcoma cells HT-1080. Kind of experiment: Anti-fibrosis activity test: inhibition of proliferation of human fibrosarcoma cells HT-1080 (CCK-8). Conditions: Homo sapiens, HT-1080, 48 h, human fibrosarcoma cells HT-1080, CCK-8, 48 hours. How it is done:
as §1, §2, §3, §4

Experiment [3] deals with human embryonic lung fibroblast IMR-90. Kind of experiment: Anti-fibrosis activity test: inhibition of proliferation of human embryonic lung fibroblast IMR-90 (CCK-8). Conditions: human embryonic lung fibroblast IMR-90, CCK-8, 48 hours. The method, then: as §1, §2, §3, §4
The test system of experiment [4] is human lung fibroblasts HFL1. Kind of experiment: Anti-fibrosis activity test: inhibition of proliferation of human lung fibroblasts HFL1 (CCK-8). Conditions: Homo sapiens, HFL1, 48 h, human lung fibroblasts HFL1, CCK-8, 48 hours. The method, then: as §1, §2, §3, §4
The test system of the next experiment is BHK-21 cells. The experiment is described as follows: Anti-fibrosis activity test: inhibition of BHK-21 cell proliferation (CCK-8). Conditions: Mesocricetus auratus, BHK-21, 48 h, CCK-8, 48 hours after administration. The method, then:
as §1, §2, §3

For experiment [5], the system named is human dermal fibroblasts CCC-ESF-1. The experiment is described as follows: Anti-fibrosis activity test: inhibition of proliferation of human dermal fibroblasts CCC-ESF-1 (CCK-8). The following applies: Fibroblast; human dermal fibroblasts CCC-ESF-1, CCK-8, 48 hours. How it is done:
as §1, §2, §3, §4

Experiment [6] deals with cardiac fibroblast RAT-iCell-C002. The experiment is described as follows: Anti-fibrosis activity test: inhibition of proliferation of cardiac fibroblast RAT-iCell-C002 (CCK-8). The following applies: Cardiac fibroblast, 48 h, cardiac fibroblast RAT-iCell-C002, CCK-8, 48 hours. The method, then: as §1, §2, §3, §4

The structures appear in SMILES notation. Where only a bound is given, the exact number is not on record here.

What is called IC50 is the concentration needed to halve the response being measured. `O=C1c2c(nc3cc(N4CCNCC4)c(F)cc3c2OCc2ccc(F)cc2)-c2cccn21` [Compound 634b, 7-fluoro-9-((4-fluorobenzyl)oxy)-6-(piperazin-1-yl)-10H-pyrrolizino[1,2-b]quinolin-10-one]: the IC50 (in experiment [1]; in experiment [2]; in experiment [3]; in experiment [4]; with BHK-21 cells; in experiment [5]) was 0.05 to 5 mM each time. This compound also gave an IC50 in experiment [6] of 0.05 to 5 mM.
For `N#Cc1ccc(Cn2c3c(c(=O)c4cc(F)c(N5CCNCC5)cc42)C(=O)n2cccc2-3)cc1` [Compound 635a, 4-((7-Fluoro-9,10-dioxo-6-(piperazin-1-yl)-9H-pyrrolizino[1,2-b]quinolin-4(10H)-yl)methyl)benzonitrile], the IC50 (in experiment [1]; in experiment [2]; in experiment [3]; in experiment [4]; in the experiment on BHK-21 cells; in experiment [5]) was 0.05 to 5 mM each time. This compound showed an IC50 in experiment [6] of 0.05 to 5 mM.
In the case of `N#Cc1ccc(COc2c3c(nc4cc(N5CCNCC5)c(F)cc24)-c2cccn2C3=O)cc1` [Compound 635b, 4-(((7-fluoro-10-oxo-6-(piperazin-1-yl)-10H-pyrrolizino[1,2-b]quinolin-9-yl)oxy)methyl)benzonitrile], the IC50 (in experiment [1]; in experiment [2]; in experiment [3]; in experiment [4]; with BHK-21 cells; in experiment [5]) was 0.05 to 5 mM throughout. This compound also displayed an IC50 in experiment [6] of 0.05 to 5 mM.
As to `O=C1c2c(n(Cc3ccc(C(F)(F)F)cc3)c3cc(N4CCNCC4)c(F)cc3c2=O)-c2cccn21` [Compound 636a, 7-Fluoro-6-(piperazin-1-yl)-4-(4-(trifluoromethyl)benzyl)-9H-pyrrolizino[1,2-b]quinoline-9,10(4H)-dione], the IC50 in experiment [1] was 0.05 to 5 mM; in experiment [2], 0.05 to 5 mM; in experiment [3] it was 0.05 to 5 mM; in experiment [4], 0.05 to 5 mM; with BHK-21 cells, 0.05 to 5 mM; in experiment [5], less than 0.05 mM. The compound also registered an IC50 in experiment [6] of 0.05 to 5 mM.
Regarding `O=C1c2c(nc3cc(N4CCNCC4)c(F)cc3c2OCc2ccc(C(F)(F)F)cc2)-c2cccn21` [Compound 636b, 7-fluoro-6-(piperazin-1-yl)-9-((4-(trifluoromethyl)benzyl)oxy)-10H-pyrrolizino[1,2-b]quinolin-10-one], the IC50 (in experiment [1]; in experiment [2]; in experiment [3]; in experiment [4]; in the experiment with BHK-21 cells; in experiment [5]) was 0.05 to 5 mM in each case. For the same compound, the IC50 in experiment [6] fell in the range of 0.05 to 5 mM.
As for `O=C1c2c(n(Cc3ccc(-c4ccccc4)cc3)c3cc(N4CCNCC4)c(F)cc3c2=O)-c2cccn21` [Compound 637a, 4-([1,1′-Biphenyl]-4-ylmethyl)-7-fluoro-6-(piperazin-1-yl)-9H-pyrrolizino[1,2-b]quinoline-9,10(4H)-dione], the IC50 is 0.05 to 5 mM in experiment [1]; 5 to 20 mM in experiment [2]; 0.05 to 5 mM in experiment [3]; 0.05 to 5 mM in experiment [4]; less than 0.05 mM in the experiment with BHK-21 cells; 0.05 to 5 mM in experiment [5]. In experiment [6], this compound registered an IC50 of 0.05 to 5 mM.
Consider `O=C1c2c(nc3cc(N4CCNCC4)c(F)cc3c2OCc2ccc(-c3ccccc3)cc2)-c2cccn21` [Compound 637b, 9-([1,1′-biphenyl]-4-ylmethoxy)-7-fluoro-6-(piperazin-1-yl)-10H-pyrrolizino[1,2-b]quinolin-10-one], for which the IC50 in experiment [1] was in the range of 0.05 to 5 mM; in experiment [2], 5 to 20 mM; in experiment [3] it was 0.05 to 5 mM; in experiment [4], 0.05 to 5 mM; in the experiment with BHK-21 cells, 0.05 to 5 mM; in experiment [5] it was 0.05 to 5 mM. The compound also yielded an IC50 in experiment [6] of 0.05 to 5 mM.
As to `N#Cc1ccccc1-c1ccc(Cn2c3c(c(=O)c4cc(F)c(N5CCNCC5)cc42)C(=O)n2cccc2-3)cc1` [Compound 638a, 4′-((7-Fluoro-9,10-dioxo-6-(piperazin-1-yl)-9H-pyrrolizino[1,2-b]quinolin-4(10H)-yl)methyl)-[1,1′-biphenyl]-2-carbonitrile], the IC50 (in experiment [1]; in experiment [2]; in experiment [3]; in experiment [4]; in the experiment on BHK-21 cells; in experiment [5]) was 0.05 to 5 mM each time. The same compound yielded an IC50 in experiment [6] of 0.05 to 5 mM.
Turning to `N#Cc1ccccc1-c1ccc(COc2c3c(nc4cc(N5CCNCC5)c(F)cc24)-c2cccn2C3=O)cc1` [Compound 638b, 4′-(((7-fluoro-10-oxo-6-(piperazin-1-yl)-10H-pyrrolizino[1,2-b]quinolin-9-yl)oxy)methyl)-[1,1′-biphenyl]-2-carbonitrile], the IC50 (in experiment [1]; in experiment [2]; in experiment [3]; in experiment [4]; in the experiment on BHK-21 cells; in experiment [5]) was 0.05 to 5 mM throughout. Moreover, the IC50 in experiment [6] lay in the range of 0.05 to 5 mM.
Consider `O=C1c2c(nc3cc(N4CCNCC4)c(F)cc3c2OCc2cc(C(F)(F)F)cc(C(F)(F)F)c2)-c2cccn21` [Compound 639b, 9-((3,5-bis(trifluoromethyl)benzyl)oxy)-7-fluoro-6-(piperazin-1-yl)-10H-pyrrolizino[1,2-b]quinolin-10-one], for which the IC50 (in experiment [1]; in experiment [2]; in experiment [3]; in experiment [4]; with BHK-21 cells; in experiment [5]) was 0.05 to 5 mM throughout. Moreover, the IC50 in experiment [6] fell in the range of 0.05 to 5 mM.
For `N#Cc1cc2c(=O)c3c(n(Cc4ccc(Cl)cc4)c2cc1N1CCNCC1)-c1cccn1C3=O` [Compound 640a, 4-(4-Chlorobenzyl)-9,10-dioxo-6-(piperazin-1-yl)-4,10-dihydro-9H-pyrrolizino[1,2-b]quinoline-7-carbonitrile], the IC50 (in experiment [1]; in experiment [2]; in experiment [3]; in experiment [4]; with BHK-21 cells; in experiment [5]) was 0.05 to 5 mM throughout. The compound further registered an IC50 in experiment [6] of 0.05 to 5 mM.
Regarding `N#Cc1cc2c(OCc3ccc(Cl)cc3)c3c(nc2cc1N1CCNCC1)-c1cccn1C3=O` [Compound 640b, 9-((4-chlorobenzyl)oxy)-10-oxo-6-(piperazin-1-yl)-10H-pyrrolizino[1,2-b]quinoline-7-carbonitrile], the IC50 (in experiment [1]; in experiment [2]; in experiment [3]; in experiment [4]; in the experiment with BHK-21 cells; in experiment [5]) was 0.05 to 5 mM in each case. In addition, the IC50 in experiment [6] is 0.05 to 5 mM.
Consider `N#Cc1ccc(Cn2c3c(c(=O)c4cc(C#N)c(N5CCNCC5)cc42)C(=O)n2cccc2-3)cc1` [Compound 641a, 4-(4-Cyanobenzyl)-9,10-dioxo-6-(piperazin-1-yl)-4,10-dihydro-9H-pyrrolizino[1,2-b]quinoline-7-carbonitrile], for which the IC50 (in experiment [1]; in experiment [2]; in experiment [3]; in experiment [4]; with BHK-21 cells; in experiment [5]) was 0.05 to 5 mM each time. The compound also gave an IC50 in experiment [6] of 0.05 to 5 mM.
